Entries after “also recorded” stand apart in the source; their conditions may differ.
Key:
Factor Xa = settings: Hitomi et al. (1985); cited from earlier work
Hageman factor = settings: Hitomi et al. (1985); cited from earlier work
[1] = test system: in vitro complement activation (C3 and C4 conversion; MASP-2); experiment: in vitro complement activation (C3a and C4a by RIA) in blood or plasma of normal donors; format: biochemical, human; settings: for MASP activity: inferred from C4a generation in EDTA blood (FIG. 2); for C4 conversion in blood, additive combined with EDTA: additive plus EDTA, 60 min at rt (FIG. 2); for C3a generation in whole blood / C4 conversion (C4a generation) in whole blood: no EDTA; for C3a generation in whole blood: 0.15 mM Benzamidine, 20 μM Trasylol or 0.1 mg/ml Futhan, 0 time vs 60 min at rt (FIG. 2); for C4 conversion (C4a generation) in whole blood: over 60 min at rt (FIG. 2)
Procedure: (§1) Blood samples were either drawn into EDTA tubes (Venoject, Terumo Corp. Elkston, Md.) or Futhan/EDTA tubes (Venoject, Terumo Europe, Leuven, Belgium). The plasma was collected immediately by centrifugation at 2000 g for 15 min. at 4° C. unless otherwise indicated. The plasma samples were either processed immediately for analysis or snap frozen in liquid nitrogen and stored at -70° C. Frozen samples were thawed at 4° C. and processed as described in the text.
(§2) Equal volumes of the plasma sample and the precipitating reagent supplied in the Biotrak RIA kits were mixed by thorough agitation and incubated at rt. for 5 min. The mixture was then centrifuged at 2500 g for 15 min. at 4° C. The supernatant from each sample tube was collected for analysis in the RIA assay. A 50 μl aliquot of the original or diluted supernatant was mixed with 50 μl of the Biotrak assay buffer in a 12×75 mm polypropylene tube. The I^125 labeled C3a or C4a and the specific antibody solutions (50 μl each from the kit) were added and incubated at rt. for 30 min. (for antibody to C3a, C4a, C5a and des Arg derivatives thereof, see Hugli et al. (1975) J. Biol. Chem. 250:1472-1478; Hugli (1975) J. Biol. Chem. 250:8293; and Hugli et al. (1981) J. Biol. Chem. 256:2685-2692). A 50 μl aliquot of the second antibody (goat anti-rabbit) was added to the tube and the mixture incubated for an additional 30 min. at rt. Two ml of isotonic saline was added and the tube was centrifuged at 2000 g for 10 min. at 4° C. to pellet the antigen-antibody complexes. The supernatant in the tubes was decanted and the tubes were counted for 1 min. in a Cobra Auto-gamma Model 5002 (Packard Instrument Co., Meriden, Conn.) scintillation counter. Analysis of each sample was performed in duplicate. Data was analyzed using RiaSmart software supplied by Packard Instruments and installed in the Cobra Auto-gamma counter.
Blood from a normal donor was drawn into EDTA and 0 to 0.2 mg/ml Futhan was added over time indicated. Plasma was recovered within 30 min. of being drawn and a precipitating agent was added to the 0 time plasma sample (EDTA/p10) to prevent further C-activation. An EDTA/Futhan plasma sample (EDTA/p1) and an EDTA/Futhan blood sample (EDTA/b1) were stored for 1 hr. at 22° C. A separate set of EDTA/Futhan plasma samples were either stored at 4° C. for 24 hr (EDTA/p4) or frozen at -70° C. for 24 hr (EDTA/pF) and then thawed for analysis. C3a and C4a levels were determined using a radioimmunoassay procedure.
Whole blood from a normal donor was drawn into 0.15 mM benzamidine, 20 μM Trasylol or 0.1 mg/ml Futhan and processed either immediately (0 time) or after 60 min. at rt, and then analyzed for C3a and C4a.
In this experiment, whole EDTA (0.5 mg/ml) blood from a normal donor was incubated at 4° C. with and without 0.1 mg/ml Futhan added. The C3a and C4a levels were determined versus time over 23-hr.
Complement activation in EDTA plasma was compared with activation in EDTA/Futhan plasma at room temperature (22-24° C.) over a period of one hour (experiment 3A). […] All blood samples were drawn into EDTA, with and without 0.1 mg/ml Futhan present, and the plasma was collected (see Materials and Methods) and frozen at -70° C. These samples were thawed at 4° C. and analyzed after 0 and 60 min. at rt.

[2] = test system: in vitro complement activation (C3 and C4 conversion; MASP-2); experiment: in vitro complement activation (C3a and C4a by RIA) in plasma of liver transplant patients; format: biochemical, human
Procedure: Blood from nineteen liver transplant patients was collected in 0.1 mg/ml Futhan and 0.5 mg/ml EDTA. The C3a and C4a levels were measured at 0 time and after 1 hr at room temperature. These samples were obtained during routine visits by the patients having no signs of acute rejection episodes.
Blood samples of 5-10 ml were drawn from normal donors, liver transplant and SLE (lupus) patients under an approved Human Subjects protocol #96-293 and all individuals were asked to sign an informed consent form agreeing to be voluntary donors. Normal donors were a random group of male and female individuals between the ages of 27-48. Liver transplant patients were selected from a group of patients being routinely followed at The Scripps Clinic Foundation by Dr. John Brems. None of these organ transplant patients were experiencing acute rejection episodes at the time that the blood was drawn.
as §1, §2
C3a and C4a generation was examined in EDTA plasma of liver transplant patients (average values, n=19) with and without […] Futhan present. These subjects were stable transplant patients not undergoing a clinically detectable rejection episode.

[3] = test system: acute rejection episode in liver transplant patients; experiment: treatment of rejection episodes in liver transplant patients; format: in vivo, human; settings: two 1 g (I.V.) doses
From the text: Blood and urine samples were collected over a period of two years from 63 liver transplant patients during routine post-operative clinical visits. The patients' identities were concealed and no selection process or attempt was made to recruit patients for any other reason than that they had undergone orthotopic liver transplantation at The Scripps Clinic and Research Foundation. Immunosuppression was initiated with a regimen of cyclosporine A (CsA), azathioprine and steroids. Treatment for some of these patients was switched to FK506, but none was treated with OKT3. Patients were seen weekly in the outpatient transplant clinic after transplantation until their liver function tests stabilized. […] Measurement of the relevant clinical parameters was obtained during each visit. Liver biopsies were obtained whenever there was an abnormality in liver function tests.

[4] = Table III samples, plasma processed immediately
[5] = n=20, stored at 4° C. for 24 hours
[6] = normal plasma, n = 20, processed immediately at rt, total data set
[7] = normal plasma, processed immediately at rt, values outside ± 2σ eliminated
[8] = normal donor, listed as benzamidine

In the case of `CS(=O)(=O)O.CS(=O)(=O)O.N=C(N)Nc1ccc(C(=O)Oc2ccc3cc(C(=N)N)ccc3c2)cc1` [Futhan, 6-amidino-2-naphthyl-p-guanidinobenzoate dimethanesulfonate], the “effective inhibitory level toward Factor Xa” value (Factor Xa) is listed as “sub-micromolar level”, the “effective inhibitory level toward Hageman factor” value (Hageman factor) is listed as “sub-micromolar level” and the “C4 conversion / C-activation versus time in normal EDTA plasma” value ([1]; 0.01 mg/ml Futhan, dimethanesulfonate) is listed as “measurable reduction in C4 conversion; also recorded: effective in protecting normal plasma from C-activation”. The “C4 cleavage in normal EDTA plasma” value ([1]; 0.10 mg/ml Futhan, over a 24-hour period) was “virtually eliminated C4 cleavage”, the “C3a levels in EDTA samples” value ([1]; 0.2 mg/ml Futhan, compared with lower Futhan levels (experiment 1)) was “somewhat higher” and the “activation of C4 in normal EDTA plasma” value ([1]; Futhan added (experiment 1)) was “abolished”. The “activity of all pathways with Futhan (Futhan/EDTA)” value ([1]; Table II, line IV) was “NO IN VITRO C-ACTIVATION”, the “reduction in C3a levels by addition of Futhan” value [1, 4] was “no significant reduction” and the “reduction in C4a levels by addition of Futhan” value [1, 4] was “only marginal reduction”. The MASP activity [1] was “inhibits MASP”, the “C3a and C4a generation in EDTA plasma from normal donors” value ([1]; n=11, 0.1 mg/ml Futhan, rt, one hour (experiment 3A)) was “effectively inhibited” and the “C4 conversion in blood, additive combined with EDTA” value (“C4 conversion in blood” for short) ([1]; normal donor, dimethanesulfonate) was “fully effective; also recorded: fully blocked in vitro C-activation”. For the same compound, the “C3a generation in whole blood” value ([1]; normal donor) was “effective inhibitor”, the “generation of C3a or C4a in stored samples” value ([1]; stored 24 hr on ice or frozen and thawed) was “minimal generation of either C3a or C4a” and the “stabilizing C3 and C4 in normal whole blood” value ([1]; with or without EDTA, up to one hour at room temperature (FIG. 2)) was “effective in stabilizing C3 and C4”. For the same compound, the “time-dependent C3a and C4a elevation in patient EDTA plasma” value ([2]; 60 min at room temperature (experiment 3B)) was “effectively prevented”, the “levels of C3a and C4a after 1 hr of incubation at rt” value ([2]; nineteen patients, 0.1 mg/ml Futhan and 0.5 mg/ml EDTA) was “unchanged in most samples” and the “C4 converting activity in EDTA plasma” value ([2]; transplant patients) was “fully inhibitable”.
For `O=C(O)CN(CCN(CC(=O)O)CC(=O)O)CC(=O)O` [EDTA, ethylenediaminetetraacetic acid], the “activity of the Lectin Pathway in EDTA plasma” value ([1]; Table II, line III) was “IN VITRO”, the “C4a elevation over 60 min in normal plasma” value ([1]; n=11, average, rt) was 3-4 fold and the “C4a level in normal plasma at 0 time” value ([1]; n=11, frozen at -70° C., thawed at 4° C., 0 min at rt (experiment 3A)) was 242 ± 95 ng/mL. The “C4a level in normal plasma after 60 min” value ([1]; n=11, frozen at -70° C., thawed at 4° C., 60 min at rt (experiment 3A)) was 768 ± 392 ng/mL, the “C3a values in normal plasma” value [1, 5] was 0.60 ± 0.026 µg/mL and the “C4a levels in normal plasma” value [1, 5] was 0.32 ± 0.017 µg/mL. The “C4a level in whole blood at 4° C., end” value ([1]; normal donor, EDTA 0.5 mg/ml, after 23 hr) was “more than 1700 ng/ml”, the “C4a level in whole blood at 4° C., start” value ([1]; normal donor, EDTA 0.5 mg/ml, start of 23-hr period) was 300 ng/mL and the “C3a, mean ± standard deviation, data set I” value ([1]; normal plasma, n = 20, EDTA 1 mg/ml or Futhan 0.2 mg/ml and EDTA, processed immediately at rt, total data set) was 599 ± 263 ng/mL. For the same compound, the “C3a, range of values, data set I” value [1, 6] was 349 to 1344 ng/mL, the “C4a, mean ± standard deviation, data set I” value [1, 6] was 316 ± 169 ng/mL and the “C4a, range of values, data set I” value [1, 6] was 130 to 774 ng/mL. The “C3a, mean ± standard deviation, data set II” value [1, 7] was 484 ± 110 ng/mL, the “C3a, range of values, data set II” value [1, 7] was 349 to 722 ng/mL and the “C4a, mean ± standard deviation, data set II” value [1, 7] was 268 ± 95 ng/mL. The “C4a, range of values, data set II” value [1, 7] was 130 to 433 ng/mL, the “C3 conversion when EDTA was added to the blood” value ([1]; normal whole blood (FIG. 2)) was “virtually no C3 was converted” and the “C4 conversion when EDTA was added to the blood” value ([1]; normal whole blood (FIG. 2)) was “remarkable increase in C4 conversion”. For the same compound, the “C3a levels in whole blood at 4° C. versus time, relative to Futhan/EDTA blood” value ([1]; over 23 hr) was “only slightly higher”, the “C3a generation in normal blood at 4° C.” value ([1]; over a 27-hr period) was “sufficient to prevent C3a generation” and the “C4a in liver transplant patient plasma after 60 min at rt” value ([2]; n=19, average) was 16.9 µg/mL. The “C4a in liver transplant patient plasma at 0 time” value ([2]; n=19, average) was 4.02 µg/mL and the “C4a level in liver transplant patient plasma at 0 time” value ([2]; n=19, average (experiment 3B)) was 4020 ± 6100 ng/mL.
With `N=C(N)c1ccccc1` [Benzamidine, benzamidine] the MASP activity [1] was “does not inhibit MASP activity”, the “C4 conversion in blood” value ([1]; normal donor) was “extensive conversion of C4 occurred” and the “C4 conversion in blood” value [1, 8] was “high levels of C4a are generated”. For the same compound, the “C4 conversion (C4a generation) in whole blood” value ([1]; normal donor) was “relatively effective in preventing C4 conversion”, the “C4 conversion (C4a generation) in whole blood” value [1, 8] was “no C4a generated in whole blood” and the “C3a generation in whole blood” value ([1]; normal donor) was “failed to prevent C3a generation”.
With `C[C@H]1C[C@@H]2[C@H]([C@@H](O)C[C@@]3(C)[C@H]2CC[C@]3(O)C(=O)CO)[C@@]2(C)C=CC(=O)C=C12` [methylprednisolone] the “course of the rejection episode after treatment” value [3] was “resolved rapidly”.

From patent US6297024A, “Methods for assessing complement activation” (Cell Activation, Inc., priority 1999, dated 2001)
